In patent US20240041042A1, “1-(PYRIDYL)-5-AZINYLPYRAZOLE DERIVATIVES, AND THEIR USE FOR CONTROL OF UNDESIRED PLANT GROWTH” (Bayer Aktiengesellschaft, priority 2020, published 2024):

How the values were obtained:
Assay type in all cases: in vivo
[1] = test system: Verconica persica (VERPE); assay: Pre-emergence herbicidal action against VERPE
In short: (§1)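 Greenhouse pot trial: seeds sown, soil-covered, sprayed before emergence with compound in water (0.5% additive; 600 l/ha; ≤320 g/ha). Scoring visual, ~3 weeks, 0–100% scale vs untreated.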

[2] = test system: Amaranthus retroflexus (AMARE); assay: Pre-emergence herbicidal action against AMARE; conditions: visual scoring after about 3 weeks vs untreated controls
In short: as §1

[3] = test system: Alopecurus myosuroides (ALOMY); assay: Post-emergence herbicidal action against ALOMY; conditions: visual rating about 3 weeks after treatment vs untreated controls (100% = plants have died, 0% = like control plants)
In short: (§2)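 Doses of 320 g/ha or lower, suffixes a, b and c marking different dosages, were applied post-emergence at the one-leaf stage in 600 l/ha water with 0.5% additive. Damage was assessed visually after about 3 weeks in the greenhouse.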

[4] = test system: Digitaria sanguinalis (DIGSA); assay: Post-emergence herbicidal action against DIGSA; conditions: visual rating about 3 weeks after treatment
In short: as §2

[5] = test system: Digitaria sanguinalis (DIGSA); assay: Pre-emergence herbicidal action against DIGSA
In short: as §1

[6] = test system: Alopecurus myosuroides (ALOMY); assay: Pre-emergence herbicidal action against ALOMY; conditions: scored visually after about 3 weeks, 100% = plants have died
In short: as §1

Oryza sativa (ORYSA) = conditions: crop plant compatibility, 80 g/ha, effect in comparison to untreated controls
In short: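 Foliar application at the one-leaf stage: WP/EC formulation, 0.5% additive, 600 l/ha water. Greenhouse-grown in sandy loam. Endpoint is visual % injury relative to untreated controls at about 3 weeks.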

[7] = 80 g/ha, visual scoring after about 3 weeks vs untreated controls

Row | SMILES | Pre-emergence action against VERPE in % ([1]; dosage 80 g/ha) | Pre-emergence action against VERPE in % ([1]; dosage 320 g/ha) | Pre-emergence action against AMARE in % ([2]; 80 g/ha) | Pre-emergence action against AMARE in % ([2]; 320 g/ha) | Post-emergence action against ALOMY in % ([3]; 320 g/ha) | Post-emergence action against DIGSA in % ([4]; 80 g/ha) | Post-emergence action against DIGSA in % ([4]; 320 g/ha) | Pre-emergence action against DIGSA in % [5, 7] | Pre-emergence action against DIGSA in % ([5]; dosage 320 g/ha) | Pre-emergence action against ALOMY ([6]; 80 g/ha) | Pre-emergence action against ALOMY ([6]; 320 g/ha) | Post-emergence action against ORYSA in % (Oryza sativa (ORYSA)) | Post-emergence action against ALOMY in % ([3]; 80 g/ha)
1 | CCOC(=O)[C@@H](C)Oc1nn(-c2nc(F)ccc2F)c(-c2cncc(F)c2)c1Cl [Example I-208] | 90% | 100% | 90% | 100% | 80% | 80% | 90% | 90% | 100% | 90% | 100% | 0% | 
2 | COC(=O)[C@@H](C)Oc1nn(-c2ncccc2F)c(-c2ccc(F)nc2)c1I [Example I-341] |  | 100% | 100% | 100% | 100% |  |  |  |  |  | 100% | 0% | 80%
3 | O=C(O)COc1nn(-c2ncccc2F)c(-c2cncc(F)c2)c1C1CC1 [Example I-175] | 100% | 100% | 100% | 100% | 90% | 90% | 90% | 100% | 100% | 100% | 100% | 20% | 90%
4 | COC(=O)C(C)COC(=O)[C@@H](C)Oc1nn(-c2ccccn2)c(-c2cncc(F)c2)c1Cl (stereo partly shown) [Example I-198] | 90% | 100% | 100% | 100% | 80% |  |  |  |  | 80% | 90% |  | 80%
5 | COC(=O)C(C)NC(=O)[C@@H](C)Oc1nn(-c2ccccn2)c(-c2cncc(F)c2)c1Cl (stereo partly shown) [Example I-199] | 90% | 100% | 100% | 100% | 90% |  |  |  |  | 90% | 90% |  | 
6 | C[C@@H](Oc1nn(-c2ncccc2F)c(-c2ccc(F)nc2)c1I)C(=O)O [Example I-343] |  | 100% | 100% | 100% | 100% |  |  |  |  | 90% | 90% | 10% | 90%
7 | COC(=O)COc1nn(-c2ncccc2F)c(-c2cncc(F)c2)c1C1CC1 [Example I-167] | 100% | 100% | 100% | 100% | 90% | 90% | 90% | 100% | 100% | 90% | 100% |  | 90%
8 | C[C@@H](Oc1nn(-c2ncccc2F)c(-c2ccc(F)nc2)c1C1CC1)C(=O)O [Example I-342] | 90% | 100% | 100% | 100% | 100% |  |  |  |  | 100% | 100% |  | 100%
9 | CCOC(=O)COc1nn(-c2nc(F)ccc2F)c(-c2cncc(F)c2)c1C1CC1 [Example I-149] |  | 100% | 90% | 100% | 90% | 80% | 90% | 90% | 100% | 90% | 100% |  | 80%
10 | COC(=O)[C@@H](C)Oc1nn(-c2nc(F)ccc2F)c(-c2cncc(F)c2)c1Br [Example I-191] | 100% | 100% | 90% | 100% | 90% |  |  |  |  | 80% | 90% |  | 80%
